Usually IC50 stands for the concentration that inhibits the measured activity by half. Usually GI50 stands for the concentration that inhibits growth by half. A low value points to more potent growth inhibition.

The values that follow come from patent publication US8883763B2 (Universite Joseph Fourier, priority 2010, dated 2014).

In one series the target is T1, PP1α (PP1CA) (Oryctolagus cuniculus, UniProt P62139).
T1 construct: purchased New England Biolabs P0754
Kind of series: Protein phosphatase test (PP1 activity, DiFMUP fluorescent substrate). It counts as biochemical. The settings on record: PP1CA at 80 mU, fluorescent substrate (50 μM), molecules from 50 μM to 50 nM; read-out: PP1 Inhibition IC50. The essentials: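 PP1α (30 or 80 mU) in 100 mM Tris-HCl pH 7.5, 4 mM DTT, 0.2 mM EDTA, 0.5 mM MnCl2 was preincubated 15 min with compound (50 μM to 50 nM), then given 60 μM DiFMUP for 20 min at 37 °C. Phosphatase activity was read as fluorescence at 355-460 nm, three times in duplicate.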

Series [1] can be described thus: In vivo toxicity in nude mice (weight, maximum tolerated oral dose). The conditions noted are these: 200 mg/kg per os twice weekly over 2 months, 63 days. How it is done: FIG. 14 presents the change in the weight of nude mice over 63 days. The mice received an administration of compound 6 (200 mg/kg) per os twice weekly over 2 months.
Compound 6 was dissolved at 8 mg/ml in a 60 mg/ml aqueous solution of beta-cyclodextrin (vehicle).
For the in vivo experiments, molecule 6 (8 mg/ml) was prepared in 60 mg/ml of β-cyclodextrin (Sigma #4805) dissolved in water and vortexed.
All the animal experiments were carried out according to the recommendations of the local ethics commmittee. Nude mice (NCr-nu/nu females (Harlan Laboratories), were housed in a room with filtered air at 22° C., alternating 12 hours of day and 12 hours of night.
The mice received compound 6 per os in doses and at intervals described in the captions to the figures. The control mice received the vehicle alone (identical volume of beta-cyclodextrin at 60 mg/ml))

Another series relates to HMEC cells. Kind of series: Proliferation of HMEC cells (GI50). It counts as cell-based. The conditions noted are these: Homo sapiens, 120 h, 50 μM to 1 nM for 5 days. A digest of the protocol: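 Cells seeded at 1,000/well (10% confluence) and exposed 5 days (120 h) to compound from 1 nM up to 50–100 μM. Live cells counted by Hoechst 33342 staining under fluorescence microscopy; GI50 is concentration halving proliferation versus control, mean of two triplicate experiments.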

In series [2] the test system is primary human fibroblasts. Put plainly: Indirect immunofluorescence on primary human fibroblasts. It counts as cell-based. The conditions noted are these: 5 and 10 μM for 24 hours. The method, then: Primary human fibroblasts (PHFs) were prepared from newborn foreskins as described in (Nahm W K et al., J Dermatol Sci. 2002, 28(2): pp 152-8).
The cells were cultured on slides in 24-well plates and incubated for 24 hours with molecule 6 at different concentrations from 1 to 10 μM.
Corresponding quantities of DMSO were added to the culture medium in the control wells.
The cells were fixed in a solution of PBS with 4% paraformaldehyde (PFA) and 0.1% glutaraldehyde (GA), for 15 minutes and centrifuged at 300 g for the last 10 minutes of the fixing. The slides were rinsed in PBS and the free aldehyde groups were reduced by two successive 5-minute incubations in PBS containing 1 mg/ml of NaBH4.
After one washing with PBS then another with PBST (PBS with 0.5% triton-X-100), the cells are incubated for 30 minutes at ambient temperature with anti α-tubulin monoclonal antibody solution (DM1A clone, Sigma # T6199) diluted to 1:200 in PBST. […] After 3 10-minute washings in PBST, the slides are mounted on plates in Fluorsave™ mounting medium (Calbiochem #345789) and are observed and analyzed using an Axiovert 200M inverted fluorescence microscope (Zeiss®). […]

The next series deals with bovine brain tubulin. Kind of series: In vitro tubulin polymerization test (turbidimetry at 350 nm). The conditions noted are these: molecules at 50 μM, calculated at t=3000 s, DMSO control = 100%. The series is classed as biochemical. A digest of the protocol: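 Bovine brain tubulin was assembled at 37 °C in BRB80 (80 mM K-PIPES pH 6.8, 1 mM MgCl2, 1 mM EGTA) with 1 mM GTP. The 50 μM tests used compounds at 50 μM, run in triplicate. Turbidity at 350 nm was read at t=3000 s and expressed relative to control taken as 100%.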

T1 sequence (P62139 whole entry): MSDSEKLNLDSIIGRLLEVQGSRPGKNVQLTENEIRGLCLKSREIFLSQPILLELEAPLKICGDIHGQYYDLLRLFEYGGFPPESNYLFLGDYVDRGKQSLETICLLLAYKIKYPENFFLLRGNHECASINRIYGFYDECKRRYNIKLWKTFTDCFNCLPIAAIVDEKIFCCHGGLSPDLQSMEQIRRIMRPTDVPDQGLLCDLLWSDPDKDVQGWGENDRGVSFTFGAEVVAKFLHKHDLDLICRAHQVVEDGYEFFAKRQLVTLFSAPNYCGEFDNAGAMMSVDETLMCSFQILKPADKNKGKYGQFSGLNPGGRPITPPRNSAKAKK

Take `COc1ccc(-c2[nH]c(=O)c3cc(OC)ccc3c2[N+](=O)[O-])cc1` [Compound 6, 7-methoxy-3-(4-methoxyphenyl)-4-nitroisoquinoline-1(2H)-one]: the IC50 at PP1α (PP1CA) was no more than 9 µM. Moreover, the “effect on the weight of nude mice” value in series [1] is “no significant effect”. Further, the GI50 in the series with HMEC cells was no more than 0.1 µM. In series [2], the “phenotype on microtubules and actin cytoskeleton, primary human fibroblasts in interphase” value was “depolymerization of the microtubules and a reorganization of the actin cytoskeleton”; the “phenotype on microtubules and actin cytoskeleton, primary human fibroblasts in mitosis” value was “depolymerization of the spindle microtubules and the formation of ectopic furrows”. In addition, the Tubulin polymerization inhibition result in the series with bovine brain tubulin is “+ ((+) signifies that the molecule induces tubulin assembly inhibition in vitro comprised between 6 and 25% of the DMSO control.)”.
